From patent US20050163879A1, “Composition for preventing or treating dementia comprising a hydroxycinnamic acid derivative or an extract of a plant of genus Angelicae containing same” (Scigenic Co. Ltd. Biosynergen, Inc., priority 1999, published 2005)

Key:
[1] = system: mice administered with β-amyloid (1-42); assay: Passive avoidance test in mice injected with β-amyloid (1-42) into the cerebral ventricle; type: in vivo, mouse; details: for dementia-preventive effect in passive avoidance test: FIGS. 7A and 7B
Method: (§1) The administration of β-amyloid (1-42) to a mouse was carried out in accordance with the method described by Laursen & Belknap (J. Pharmacol. Methods, 16, 355-357 (1986)). Specifically, 5 μl of phosphate-buffered saline containing 1.85 μg of β-amyloid (1-42) was put in a 50 μl Hamilton syringe fitted with a 26 gauge needle, the tip of the needle was inserted into the bregma of the mouse and then the β-amyloid (1-42) solution was administered thereto. Each mouse of a control group received an equal amount of β-amyloid (42-1) in place of β-amyloid (1-42). A passive avoidance test was carried out at days 1-2 (day 1: training, day 2: test) and a Y-maze test, at days 3-4 (day 3: training, day 4: test) after the administration.
In order to examine the learning and memory-retention ability of a mouse, a passive avoidance test was carried out in accordance with the method described in Song et al., J. Neurochem., 71, 875-878 (1998), as follows.
A passive avoidance case equipped with a light room and a dark room was prepared, the floor of the dark room being designed to deliver an electrical shock to a test animal. First, a mouse was put in the light room and, upon entering the dark room, it received an electrical shock at 0.25 mA for 1 sec. Twenty-four hours after the training, the mouse was put in the light room again and the time it took to enter the dark room was measured as a passive avoidance time. The maximum time was set at 300 sec., i.e., in case when the mouse took more than 300 sec. to enter the dark room, the passive avoidance time was determined to be 300 sec.
Forty 4- to 5-week old mice each weighing 20 to 25 g were divided into four groups of equal number. The Angelicae gigas Nakai extract prepared in Example 1 was dissolved in water to concentrations of 0.08% (w/v) and 0.1% (w/v), respectively, […] the solution/mouse. The mice of the other two groups were provided with normal drinking water for 4 weeks. Thereafter, the mice of one of the two normal drinking water groups were administered into their cerebral ventricle with 1.85 μg of β-amyloid (42-1) (“control group”) and the mice of the remaining three groups, with β-amyloid (1-42) (Aβ1-42), as in Reference Example 1. Then, a passive avoidance test was carried out for each group of mice as in Reference Example 2 and the data attained were averaged for each group.
Fifty 4- to 5-week old mice each weighing 20 to 25 g were divided into five groups by equal number. Ferulic acid was dissolved in water to concentrations of 0.002% (w/v), 0.004% (w/v) and 0.006% (w/v), respectively, […] the solution/mouse. The mice of the other two groups were provided with normal drinking water for 4 weeks. Thereafter, the mice of one of two normal drinking water groups were administered into their cerebral ventricle with 1.85 μg of β-amyloid (42-1) (“control group”) and the mice of the remaining four groups, with β-amyloid (1-42)(Aβ1-42), as in Reference Example 1. Then, a passive avoidance test was carried out for each group of mice as in Reference Example 2 and the data attained were averaged for each group.
Forty 4- to 5-week old mice each weighing 20 to 25 g were divided into four groups of equal number. Decursinol was dissolved in corn oil, mixed with a mouse fodder, and the mice of two groups were provided with the resulting fodder for 4 weeks at a daily dose of 7.5 mg decursinol/kg or 15 mg decursinol/kg. […]

[2] = system: mice administered with β-amyloid (1-42); assay: Y-maze test in mice injected with β-amyloid (1-42) into the cerebral ventricle; type: in vivo, mouse; details: for alternation behavior (%): compared with β-amyloid (1-42) only group
Method: as §1
Spontaneous alternation behavior of a mouse was examined by a Y-maze test in accordance with the method described in Starter et al., Psychopharmacology, 94, 491-495 (1988) as follows.
The Y-maze consisted of three arms shaped like Y. A test mouse was placed in one of the arms such that it faced the arm's terminal and allowed to roan freely through the three arms for […]. The number of alternation was determined by counting the number of occasions the mouse passed the three arms consecutively. Spontaneous alternation behavior was determined as the percentage of the alternation number based on the total number of arm entries.
Further, Y-maze tests were carried out employing the above-prepared mice as in Reference Example 3.
Forty 4- to 5-week old mice each weighing 20 to 25 g were divided into four groups of equal number. Decursinol was dissolved in corn oil, mixed with a mouse fodder, and the mice of two groups were provided with the resulting fodder for 4 weeks at a daily dose of 7.5 mg decursinol/kg or 15 mg decursinol/kg. The mice of the other two groups were provided with a normal mouse fodder containing an equal amount of corn oil as above for 4 weeks. Thereafter, the mice of one of the two normal fodder groups were administered, into their cerebral ventricle, with 1.85 μg of β-amyloid (42-1) (“control group”) and the mice of the remaining three groups, with β-amyloid (1-42) (Aβ1-42), as in Reference Example 1. Then, a passive avoidance test and a Y-maze test were carried out for each group of mice as in Reference Examples 2 and 3, respectively, and the data attained were averaged for each group.

OX-42 = assay: Immunohistochemical staining of OX-42 in pyriform cortex and amygdaloid nucleus one day after β-amyloid; type: in vivo, mouse; details: 0.006% (w/v) ferulic acid in drinking water for 4 weeks, then β-amyloid (1-42); 1 day after; vs β-amyloid (1-42) only; FIGS. 8c and 8f
Method: 4- to 5-week old mice each weighing 20 to 25 g was divided into three groups. Ferulic acid was dissolved in water to a concentration of 0.006% (w/v), and the mice of one group were provided with the resulting solution instead of water for 4 weeks. The mice of other two groups were provided with normal drinking water for 4 weeks. Thereafter, the mice of one of two normal drinking water groups were administered, into their cerebral ventricle, with 1.85 μg of β-amyloid (42-1) (“control group”) and the mice of the remaining two groups, with β-amyloid (1-42) (β1-42), as in Reference Example 1.
One day after the administration of β-amyloid, each of the mice was anesthetized with sodium pentobarbital and its abdomen was incised. The mouse was fixed by passing 4% paraformaldehyde through its left ventricle and its brain was excised.
In accordance with the method described in Cho et al., J. Comp. Neurol., 369: 264-276 (1996), a section was prepared from the excised brain and immunohistochemical staining was carried out in order to stain […] in the pyriform cortex and the amygdaloid nucleus by employing 1:500 dilution of anti-OX-42 antibody (Halan (Sera-Lab)).

[3] = system: choline acetyltransferase (ChAT); assay: Immunohistochemical staining of ChAT in septal nucleus 5 days after β-amyloid; type: in vivo, mouse; details: 0.006% (w/v) ferulic acid for 4 weeks, then β-amyloid (1-42), vs β-amyloid (1-42) only, FIG. 9c
Method: Three groups of mice were administered with ferulic acid and/or β-amyloid in accordance with the method of (1). 5 days after the administration of β-amyloid, immunohistochemical staining was carried out according to the method of (1) except for employing 1:750 dilution of anti-choline-acetyltransferase (ChAT) antibody (Chemicon) in order to stain CHAT, an enzyme for acetylcholine synthesis, in the septal nucleus wherein acetylcholine neurons are distributed.

mouse cerebral neurons = assay: β-amyloid (1-42)-induced leakage of lactate dehydrogenase (LDH) from primary mouse cortical culture; type: cell-based; details: 100 μM ferulic acid 30 minutes before 25 μM β-amyloid (1-42); 24 and 48 hours; vs β-amyloid (1-42) group; FIG. 10
Method: In accordance with the method of Wie et al. (Neurosci. Lett., 225: 93-96 (1997)), glia was cultured from cells of the cerebral cortex of a mouse and neurons of mouse cerebrum were cultured by employing the glia as a substrate.
The culture of mouse cerebral neurons was divided into three groups. Neurons of one group received no treatment (control group). Neurons of the other two groups were treated with 25 μM of β-amyloid (1-42), and one of these two groups were treated with 100 μM of ferulic acid 30 minutes before the administration of β-amyloid (1-42).
The degree of damage in neurons was determined by measuring the concentration of lactate dehydrogenase (LDH), which was released from the damaged or disrupted neurons into the culture medium, in accordance with the method of Wie et al. Samples of the culture medium were taken at 24 and 48 hours after the administration of β-amyloid (1-42), respectively, and their LDH concentrations were measured with a microplate reader.

LDH concentration in culture medium (mouse cerebral neurons)	Compound	dementia-preventive effect in passive avoidance test ([1]; decursinol alone, low amount: 2 mg/kg or 3 mg/kg)	decrease in passive avoidance response time due to β-amyloid (1-42) ([1]; decursinol in fodder, 7.5 mg/kg or 15 mg/kg daily for 4 weeks, FIG. 6A)	number of arm entries (measure of spontaneous movement) ([2]; decursinol 7.5 mg/kg or 15 mg/kg daily for 4 weeks, FIG. 6C)	alternation behavior (%) ([2]; decursinol 7.5 mg/kg or 15 mg/kg daily for 4 weeks, FIG. 6B)	passive avoidance response time ([1]; 0.006& (w/v) ferulic acid for 1, 2, 3 and 4 weeks, FIG. 3B)	decrease in passive avoidance response time ([1]; ferulic acid 0.002%, 0.004% and 0.006% (w/v) in drinking water for 4 weeks before Aβ1-42, FIG. 3A)	dementia-preventive effect in passive avoidance test ([1]; ferulic acid alone, low amount: 0.002% (w/v) or 0.003% (w/v))	number of arm entries (measure of spontaneous movement) ([2]; ferulic acid, period of administration varied, FIG. 4B)	alternation behavior (%) ([2]; ferulic acid, period of administration varied, FIG. 4A)	OX-42 staining in pyriform cortex and amygdaloid nucleus (OX-42)	ChAT staining in septal nucleus [3]
	CC1(C)Oc2cc3oc(=O)ccc3cc2C[C@@H]1O [decursinol]	no dementia-preventive effect	prevented	nearly the same for all groups	higher and increased dose-dependently							
much lower	COc1cc(/C=C/C(=O)O)ccc1O [ferulic acid]					becomes increasingly higher with the period of administration	prevented dose-dependently	no dementia-preventive effect	nearly the same for all groups	higher and increased in proportion to the period of administration	much less pronounced	the decrease was suppressed
